Assay results as given in US20240101570A1 (AMGEN INC., priority 2020, published 2024).

Columns and labels:
[1] = test system: HCT116 MTAP null cells; test: HCT116 MTAP null cell proliferation / viability (CellTiter-Glo, 6 days); type: cell-based; details: HCT116-MTAP null, 144 h, HCT116 MTAP null cells, 6 days, CellTiter-Glo; read-out: HCT-116 MTAP null IC50
How it was run: (§1)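 CellTiter-Glo luminescence, 6-day exposure, RPMI 1640 + 10% FBS. Dosing: 1:3 series (8-9 pts, top 1 or 10 μM) or 1:2 series (22 pts, top 10 or 50 μM), DMSO control. IC50 = 50% of control via curve fit.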

[2] = test system: HCT116 WT cells; test: HCT116 WT cell proliferation / viability (CellTiter-Glo, 6 days); type: cell-based; details: Homo sapiens, HCT-116, 144 h, HCT116 WT cells, 6 days, CellTiter-Glo; read-out: HCT-116 WT IC50
How it was run: as §1

SMILES	IC50 [1] [µM]	IC50 [2] [µM]
Nc1nc2cnc(C(=O)N(Cc3ccc(C(F)(F)F)nn3)C3CC3)cc2c2c1COC2 [Example 382, 4-amino-N-cyclopropyl-N-((6-(trifluoromethyl)-3-pyridazinyl)methyl)-1,3-dihydrofuro[3,4-c][1,7]naphthyridine-8-carboxamide]	1.16	22.8
CC(C)N(Cc1ccc(C2CC2)nc1)C(=O)c1cc2c3c(c(N)nc2cn1)COC3 [Example 383, 4-amino-N-((6-cyclopropyl-3-pyridinyl)methyl)-N-(2-propanyl)-1,3-dihydrofuro[3,4-c][1,7]naphthyridine-8-carboxamide]	1.31	43
CC(C)N(Cc1ccc(C(F)(F)F)cn1)C(=O)c1ccc2nc(N)c3c(c2c1)CO[C@@H]3C [Example 384, (3R)-4-amino-3-methyl-N-(2-propanyl)-N-((5-(trifluoromethyl)-2-pyridinyl)methyl)-1,3-dihydrofuro[3,4-c]quinoline-8-carboxamide]	0.053	1.38
CC(C)N(Cc1ccc(C2CC2)cn1)C(=O)c1cc2c3c(c(N)nc2cn1)COC3 [Example 385, 4-amino-N-((5-cyclopropyl-2-pyridinyl)methyl)-N-(2-propanyl)-1,3-dihydrofuro[3,4-c][1,7]naphthyridine-8-carboxamide]	0.157	7.29
C[C@H]1OCc2c1c(N)nc1ccc(C(=O)N(C)Cc3ccc(C#N)cn3)cc21 [Example 386, (3R)-4-amino-N-((5-cyano-2-pyridinyl)methyl)-N,3-dimethyl-1,3-dihydrofuro[3,4-c]quinoline-8-carboxamide]	0.455	30.3
CCOc1ccc(CN(C(=O)c2ccc3nc(N)c4c(c3c2)COC4)C23CC(C2)C3)nn1 [Example 387, 4-amino-N-(bicyclo[1.1.1]pentan-1-yl)-N-((6-ethoxy-3-pyridazinyl)methyl)-1,3-dihydrofuro[3,4-c]quinoline-8-carboxamide]	0.175	4.04
CCOc1ccc(CN(C(=O)c2cc3c4c(c(N)nc3cn2)COC4)[C@H](C)COC)nn1 [Example 388, 4-amino-N-((6-ethoxy-3-pyridazinyl)methyl)-N-((2R)-1-methoxy-2-propanyl)-1,3-dihydrofuro[3,4-c][1,7]naphthyridine-8-carboxamide]	0.054	1.28
CN(Cc1ccc(C(F)(F)F)nn1)C(=O)c1cc2c3c(c(N)nc2cc1Cl)COC3 [Example 389, 4-amino-7-chloro-N-methyl-N-((6-(trifluoromethyl)-3-pyridazinyl)methyl)-1,3-dihydrofuro[3,4-c]quinoline-8-carboxamide]	0.05	3.39
CC(C)N(Cc1ccc(C(F)(F)F)nn1)C(=O)c1ccc2nc(N)c3c(c2c1)COC3 [Example 391, 4-amino-N-(2-propanyl)-N-((6-(trifluoromethyl)-3-pyridazinyl)methyl)-1,3-dihydrofuro[3,4-c]quinoline-8-carboxamide]	0.091	4.54
CC(C)N(Cc1ccc(C#N)cn1)C(=O)c1cc2c3c(c(N)nc2cc1Cl)COC3 [Example 392, 4-amino-7-chloro-N-((5-cyano-2-pyridinyl)methyl)-N-(2-propanyl)-1,3-dihydrofuro[3,4-c]quinoline-8-carboxamide]	0.057	1.54
CC(C)N(Cc1ccc(C(F)(F)F)nn1)C(=O)c1ccc2nc(N)c3c(c2c1)CO[C@@H]3C [Example 393, (3R)-4-amino-3-methyl-N-(2-propanyl)-N-((6-(trifluoromethyl)-3-pyridazinyl)methyl)-1,3-dihydrofuro[3,4-c]quinoline-8-carboxamide]	0.113	6.93
CC(C)N(Cc1ccc(C(F)(F)F)nn1)C(=O)c1cc2c3c(c(N)nc2cc1Cl)COC3 [Example 394, 4-amino-7-chloro-N-(2-propanyl)-N-((6-(trifluoromethyl)-3-pyridazinyl)methyl)-1,3-dihydrofuro[3,4-c]quinoline-8-carboxamide]	0.03	0.831
Nc1nc2cc(Cl)c(C(=O)N(Cc3ccc(C(F)(F)F)cn3)C34CC(C3)C4)cc2c2c1COC2 [Example 395, 4-amino-N-(bicyclo[1.1.1]pentan-1-yl)-7-chloro-N-((5-(trifluoromethyl)-2-pyridinyl)methyl)-1,3-dihydrofuro[3,4-c]quinoline-8-carboxamide]	0.031	0.535
C[C@H]1OCc2c1c(N)nc1cnc(C(=O)N(Cc3ccc(C(F)(F)F)cn3)CC3CC3)cc21 [Example 396, (3R)-4-amino-N-(cyclopropylmethyl)-3-methyl-N-((5-(trifluoromethyl)-2-pyridinyl)methyl)-1,3-dihydrofuro[3,4-c][1,7]naphthyridine-8-carboxamide]	0.02	0.629
CCOc1ccc(CN(C(=O)c2cc3c4c(c(N)nc3cn2)[C@@H](C)OC4)[C@H](C)COC)nn1 [Example 397, (3R)-4-amino-N-((6-ethoxy-3-pyridazinyl)methyl)-N-((2R)-1-methoxy-2-propanyl)-3-methyl-1,3-dihydrofuro[3,4-c][1,7]naphthyridine-8-carboxamide]	0.055	1.1
CC1(CN(Cc2ccc(C(F)(F)F)cn2)C(=O)c2cc3c4c(c(N)nc3cn2)COC4)CC1 [Example 398, 4-amino-N-((1-methylcyclopropyl)methyl)-N-((5-(trifluoromethyl)-2-pyridinyl)methyl)-1,3-dihydrofuro[3,4-c][1,7]naphthyridine-8-carboxamide]	0.049	1.39
CN(Cc1ccc(C(F)(F)F)cc1)C(=O)c1ccc2nc(N)c3c(c2c1)COC3 [Example 399, 4-amino-N-methyl-N-(4-(trifluoromethyl)benzyl)-1,3-dihydrofuro[3,4-c]quinoline-8-carboxamide]	0.393	4.43
CN(Cc1ccc(C(F)(F)F)nc1)C(=O)c1ccc2nc(N)c3c(c2c1)COC3 [Example 400, 4-amino-N-methyl-N-((6-(trifluoromethyl)-3-pyridinyl)methyl)-1,3-dihydrofuro[3,4-c]quinoline-8-carboxamide]	0.97	> 10
CC(C)N(Cc1ccc(C2CC2)nc1)C(=O)c1cc2c3c(c(N)nc2cc1Cl)COC3 [Example 401, 4-amino-7-chloro-N-((6-cyclopropyl-3-pyridinyl)methyl)-N-(2-propanyl)-1,3-dihydrofuro[3,4-c]quinoline-8-carboxamide]	0.084	3.08
CC(C)N(Cc1ccc(C2CC2)nc1)C(=O)c1cc2c3c(c(N)nc2cn1)[C@H](C)OC3 [Example 403, (3S)-4-amino-N-((6-cyclopropyl-3-pyridinyl)methyl)-3-methyl-N-(2-propanyl)-1,3-dihydrofuro[3,4-c][1,7]naphthyridine-8-carboxamide]	≥ 10	> 10
CC(C)N(Cc1ccc(C#N)cn1)C(=O)c1cc2c3c(c(N)nc2cn1)[C@@H](C)OC3 [Example 404, (3R)-4-amino-N-((5-cyano-2-pyridinyl)methyl)-3-methyl-N-(2-propanyl)-1,3-dihydrofuro[3,4-c][1,7]naphthyridine-8-carboxamide]	0.18	11.4
C[C@H]1OCc2c1c(N)nc1cnc(C(=O)N(Cc3ccc(C(F)(F)F)nn3)C3CC3)cc21 [Example 405, (3R)-4-amino-N-cyclopropyl-3-methyl-N-((6-(trifluoromethyl)-3-pyridazinyl)methyl)-1,3-dihydrofuro[3,4-c][1,7]naphthyridine-8-carboxamide]	0.362	> 10
CC(C)N(Cc1ccc(C2CC2)cn1)C(=O)c1cc2c3c(c(N)nc2cn1)[C@@H](C)OC3 [Example 406, (3R)-4-amino-N-((5-cyclopropyl-2-pyridinyl)methyl)-3-methyl-N-(2-propanyl)-1,3-dihydrofuro[3,4-c][1,7]naphthyridine-8-carboxamide]	0.097	4.13
CC(C)N(Cc1ccc(C2CC2)cn1)C(=O)c1cc2c3c(c(N)nc2cn1)[C@H](C)OC3 [Example 407, (3S)-4-amino-N-((5-cyclopropyl-2-pyridinyl)methyl)-3-methyl-N-(2-propanyl)-1,3-dihydrofuro[3,4-c][1,7]naphthyridine-8-carboxamide]	3.66	> 10
CCN(Cc1ccc(C(F)(F)F)cn1)C(=O)c1cc2c3c(c(N)nc2cn1)[C@@H](C)OC3 [Example 408, (3R)-4-amino-N-ethyl-3-methyl-N-((5-(trifluoromethyl)-2-pyridinyl)methyl)-1,3-dihydrofuro[3,4-c][1,7]naphthyridine-8-carboxamide]	0.086	3.35
CCOc1ccc(CN(C(=O)c2cc3c4c(c(N)nc3cn2)[C@@H](C)OC4)C23CC(C2)C3)nn1 [Example 409, (3R)-4-amino-N-(bicyclo[1.1.1]pentan-1-yl)-N-((6-ethoxy-3-pyridazinyl)methyl)-3-methyl-1,3-dihydrofuro[3,4-c][1,7]naphthyridine-8-carboxamide]	0.056	5.87
COC[C@@H](C)N(Cc1ccc(Br)nn1)C(=O)c1cc2c3c(c(N)nc2cn1)[C@@H](C)OC3 [Example 410, (3R)-4-amino-N-((6-bromo-3-pyridazinyl)methyl)-N-((2R)-1-methoxy-2-propanyl)-3-methyl-1,3-dihydrofuro[3,4-c][1,7]naphthyridine-8-carboxamide]	0.087	3.25
C[C@H]1OCc2c1c(N)nc1cnc(C(=O)N(C)Cc3ccc(C(F)(F)F)cn3)cc21 [Example 411, (3R)-4-amino-N,3-dimethyl-N-((5-(trifluoromethyl)-2-pyridinyl)methyl)-1,3-dihydrofuro[3,4-c][1,7]naphthyridine-8-carboxamide]	0.181	13.6
